For four molecules, IC50 and Ratio IC50 results are on record in ChEMBL document CHEMBL1139828, “Synthesis of 2,3-diaryl-1,3-thiazolidine-4-one derivatives as selective cyclooxygenase (COX-2) inhibitors” (Bioorg Med Chem Lett, 2007).

For experiment [1], the target named is T1, Prostaglandin G/H synthase 2 (Homo sapiens, UniProt P35354).
T1 sequence (P35354 whole entry): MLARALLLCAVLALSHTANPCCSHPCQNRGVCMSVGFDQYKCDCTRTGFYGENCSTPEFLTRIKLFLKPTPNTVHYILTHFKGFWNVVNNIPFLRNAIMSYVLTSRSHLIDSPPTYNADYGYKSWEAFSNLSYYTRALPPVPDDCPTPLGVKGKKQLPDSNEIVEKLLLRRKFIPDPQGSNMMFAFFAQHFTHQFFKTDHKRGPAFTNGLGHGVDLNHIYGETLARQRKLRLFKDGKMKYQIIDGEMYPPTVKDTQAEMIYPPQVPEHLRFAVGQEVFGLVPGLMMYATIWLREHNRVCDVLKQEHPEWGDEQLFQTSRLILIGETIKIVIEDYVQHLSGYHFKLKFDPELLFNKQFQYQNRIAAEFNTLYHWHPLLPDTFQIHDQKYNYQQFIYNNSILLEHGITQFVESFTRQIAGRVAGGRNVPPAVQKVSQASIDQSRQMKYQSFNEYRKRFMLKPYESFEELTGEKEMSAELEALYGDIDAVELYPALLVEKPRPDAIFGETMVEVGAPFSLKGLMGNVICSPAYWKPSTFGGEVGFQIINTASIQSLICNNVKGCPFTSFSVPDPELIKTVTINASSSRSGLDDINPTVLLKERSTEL

Experiment [2] deals with Prostaglandin G/H synthase 1 (Homo sapiens, UniProt P23219).
The species entered for the next experiment is Homo sapiens. Kind of experiment: Selectivity index, ratio of IC50 for […].

Prostaglandin G/H synthase 1, sequence (P23219 whole entry): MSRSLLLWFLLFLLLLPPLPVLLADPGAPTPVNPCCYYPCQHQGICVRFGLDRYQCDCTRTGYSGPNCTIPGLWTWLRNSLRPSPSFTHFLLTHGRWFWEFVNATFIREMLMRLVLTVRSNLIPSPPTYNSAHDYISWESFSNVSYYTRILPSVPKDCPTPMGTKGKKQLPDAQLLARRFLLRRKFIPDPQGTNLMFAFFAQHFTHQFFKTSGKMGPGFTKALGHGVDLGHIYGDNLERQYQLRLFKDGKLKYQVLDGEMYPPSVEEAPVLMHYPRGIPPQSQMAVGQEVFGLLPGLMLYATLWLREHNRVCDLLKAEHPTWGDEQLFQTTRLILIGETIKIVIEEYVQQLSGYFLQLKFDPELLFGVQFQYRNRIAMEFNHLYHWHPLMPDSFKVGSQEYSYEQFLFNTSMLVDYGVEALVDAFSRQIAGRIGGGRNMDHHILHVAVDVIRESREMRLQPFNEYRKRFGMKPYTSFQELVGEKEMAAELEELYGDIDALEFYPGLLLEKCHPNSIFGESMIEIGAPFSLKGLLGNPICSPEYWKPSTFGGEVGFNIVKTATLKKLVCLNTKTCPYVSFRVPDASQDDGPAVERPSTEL

As for `COc1ccc(N2C(=O)CSC2c2ccc(S(C)(=O)=O)cc2)cc1` (configuration not stated), the IC50 was 160 nM in experiment [1] and above 100000 nM in experiment [2]. In addition, in the experiment listed under Homo sapiens, the Ratio IC50 was above 625.
Taken in the same sequence, the figures for `Cc1ccc(N2C(=O)CSC2c2ccc(S(C)(=O)=O)cc2)cc1` (configuration not stated) were 150 nM, 53900 nM and 359.
The corresponding values for `CS(=O)(=O)c1ccc(C2SCC(=O)N2c2ccc(F)cc2)cc1` (configuration not stated) are 120 nM, above 100000 nM and above 833.
Taken in the same sequence, the figures for `CS(=O)(=O)c1ccc(C2SCC(=O)N2c2ccccc2)cc1` (configuration not stated) were 200 nM, 96100 nM and 480.

In general, IC50 refers to the concentration at which inhibition is half-maximal. Read a low IC50 as inhibition by little substance.
